Results published in patent publication US20040138301A1, “Chemical uncouplers for the treatment of obesity” (priority 2002, published 2004).
pEC50: −log10 of the molar value. Where two headings read alike, the source gives them in different places.

Test system: HEP-G2 cells
Assay: cells
Settings: for pEC50 / Emax / EC (Emax): Homo sapiens; for pEC50: HepG2, 3 h
Procedure: Assay (I): Glucose utilisation in a human hepatocytes cell line (HEP-G2 cells)
The assay measures indirectly the activity of the respiratory chain in HEP-G2 cells by using D-(3-^3H(N))-glucose. The ^3H-proton will first be released during the metabolism of glucose where it will be incorporated into water. The water is thereafter separated from the D-(3-^3H(N))-glucose by evaporation. Finally, the radioactivity in the water is determined using a Topcounter.
HEP-G2 cells obtained from ATCC (Maryland, USA), are cultured in assay medium (MEM medium) with the following addition 1× non-essential amino acids (M7145, 2 mM glutamine, 100 units/ml penicillin and streptomycin, 0.0075% sodium bicarbonate, 1 mM sodium pyrovate and 0.5% BSA (Bovin Serum Albumin, Sigma Missouri, USA)) at 37° C. and 5% CO2. All media are obtained by Gibco (Life Technologies, Maryland, USA) where not otherwise mentioned.
At day zero the cells are harvested using trypsin-EDTA and washed in assay medium using centrifugation. […] The cells are then incubated at 37° C. and 5% CO2 overnight.
The next day the compounds to be tested are diluted in DMSO (Sigma, Missouri, USA) to 100 times final concentration. They are then diluted to a final concentration in assay medium containing 10 μCi/ml D-(3-^3H(N))-glucose (PerkinElmer Life Sciences Inc., Boston, USA). The medium is removed from the cells and 200 μl of the compound dilutions are added in duplicates. The cells are then incubated for another 3 hours at 37° C. and 5% CO2. Finally the cells are lysed by adding 50 μl 10% TCA (trichloroacetic acid). 300 μl of sterile water is then added to the 24-wells that surrounds the StripPlate wells. The plate is sealed with Top-seal-tape (Packard, PerkinElmer Life Sciences Inc., Boston, USA) and the plate is incubated in a heating cupboard at 50° C. to equilibrium the radioactive water formed in the respiratory chain into the water in the 24-well plate by evaporate. The plates incubate for 8 hours where the heating cupboard is turned off. The top seal is removed when the samples have reached room temperature. One ml scintillation liquid (Packard Microscient, PerkinElmer Life Sciences Inc., Boston, USA) is added to all the samples and the radioactivity is determined using a Topcounter (Packard, PerkinElmer Life Sciences Inc., Boston, USA). Non-specific activity is determined by evaporating 200 μl of the dilution medium containing the D-(3-^3H(N))-glucose into 300 μl sterile water, and total radioactivity is determined by counting 5 μl assay medium with 10 μCi/ml D-(3-^3H(N))-glucose.
The cpm (counts per minute) representing the non-specific radioactivity in the D-(3-^3H(N))-glucose is subtracted from all incubated values. Then mean basal value (samples without any compound added) is subtracted from the values of all stimulated samples (samples added different concentrations of the different test compounds). All these calculations are done using GraphPad Prism 3.0 (GraphPad software, Inc.). The maximal stimulation caused by the test compounds is calculated in percentage of maximal stimulation caused by either DNP or FCCP.
When calculating the concentration-response curve the maximal glucose utilisation stimulated by FCCP or DNP (subtracted non-specific and basal values) is converted to 100% and all the other values are expressed in percentage of this value. Using these percentage values and the compound concentration a concentration-response curve is calculated using sigmoidal dose-response (variable slope) equation (all the calculations are done by GraphPad Prism 3.0 (GraphPad software, Inc.));
Y=Bottom+(Top−Bottom)/(1+10^((LogEC50-X)*slope))
X is the logarithm of the molar concentration of the test compound.
Y is the degree of stimulation caused by the compound measured as a percentage of the maximal stimulation achieved by use of FCCP or DNP.
The results achieved with these concentrations are used to determine the slope in this area using the following equation: […]

[1] = read-out: HEP-G2 EC50, HEP-G2 cells, glucose utilisation, 3 hours incubation
[2] = HepG2, read-out: HEP-G2 Emax (% of FCCP), HEP-G2 cells, maximal stimulation relative to FCCP
[3] = HepG2, read-out: HEP-G2 Emax (μM), HEP-G2 cells, concentration at which Emax is achieved (CEmax)
[4] = HepG2, read-out: HEP-G2 Emax (% of FCCP)
[5] = HepG2, read-out: HEP-G2 Emax (μM)

SMILES | pEC50 [1] | Emax [2] | EC (Emax) [3] | HEP-G2 Tox (human, 3 h) | pEC50 (read-out: HEP-G2 EC50) | Emax [4] | EC (Emax) [5] | HEP-G2 Tox (concentration with sign of toxicity (significant drop in glucose utilisation))
N#CC(C#N)=Cc1c[nH]c2ccc(Br)cc12 [Example 29, 2-(5-Bromo-1H-Indol-3-Ylmethylene)-Malononitrile] | 4.89 | 65% | 30 µM | – | – | – | – | –
CCc1cc(C#N)cc2c(C)c(C)[nH]c12 [Example 22, 2,3-Dimethyl-5-Cyano-7-Ethylindole] | 4.04 | 100% | 1000 µM | – | – | – | – | –
O=C(Nc1cc(C(F)(F)F)cc(C(F)(F)F)c1)c1cc(F)cc(C(F)(F)F)c1 [Example 64, N-(3,5-Bis-Trifluoromethyl-Phenyl)-3-Fluoro-5-Trifluoromethyl-Benzamide] | 5.59 | 105% | 10 µM | – | – | – | – | –
CC(C)(C)c1cc(/C=N/C(C#N)=C(\N)C#N)cc(C(C)(C)C)c1O [Example 17, 2-Amino-S-[(3,5-Di-Tert-Butyl-4-Hydroxybenzylidone)-Amino]-But-2-Enedinitrile] | 5.22 | 45% | 30 µM | Tox 0.1 mM | – | – | – | –
O=C(Nc1ccc([N+](=O)[O-])cc1Cl)c1ccc2ccccc2c1O [Example 8, 2′-Chloro-1-Hydroxy-4′-Nitro-2-Naphthanilide] | – | – | – | – | 4.92 | 80% | 100 µM | –
O=C(Nc1ccc(Br)cc1Cl)c1cc(Br)ccc1O [Example 9, N-(2-Chloro-4-Bromophenyl)-5-Bromosalicylanilide] | 5.64 | 100% | 10 µM | – | – | – | – | –
N#Cc1ccc(NC(=O)c2cc(C(F)(F)F)cc(C(F)(F)F)c2)cc1C(F)(F)F [Example 6, N-1-[4-Cyano-3-(Trifluoromethyl)Phenyl]-3,5-Di(Trifluoromethyl)Benzamide] | – | – | – | – | 5.80 | 95% | 10 µM | Tox 0.1 mM
Cc1cc(C)c2[nH]cc(C=C(C#N)C#N)c2c1 [Example 28, 2-(5,7-Dimethyl-1H-Indol-3-Ylmethylene)-Malononitrile] | 4.45 | 35% | 300 µM | – | – | – | – | –
O=C(Nc1ccc([N+](=O)[O-])c(C(F)(F)F)c1)c1cc(F)cc(C(F)(F)F)c1 [Example 65, 3-Fluoro-N-(4-Nitro-3-Trifluoromethyl-Phenyl)-5-Trifluoromethyl-Benzamide] | 5.28 | 100% | 10 µM | – | – | – | – | –
N#Cc1c(-c2ccc(Cl)cc2)[nH]c(C(F)(F)F)c1Br [Example 23, 4-Bromo-2-(4-Chlorophenyl)-5-Trifluoromethyl-1H-Pyrrole-3-Carbonitrile] | – | – | – | – | 5.76 | 117% | 30 µM | –
Cc1ccc2[nH]cc(C=C(C#N)C#N)c2c1 [Example 31, 2-((5-Methyl-1H-Indol-3-Yl)Methylene)Malononitrile] | ≤ 3.52 | 0% | – | – | – | – | – | –
O=C(Nc1ccc([N+](=O)[O-])c(C(F)(F)F)c1)c1ccc(F)c(C(F)(F)F)c1 [Example 67, 4-Fluoro-N-(4-Nitro-3-Trifluoromethyl-Phenyl)-3-Trifluoromethyl-Benzamide] | 5.23 | 85% | 30 µM | – | – | – | – | –
CC(C)(C)c1cc(/C=C(\C#N)c2cc(C(F)(F)F)cc(C(F)(F)F)c2)cc(C(C)(C)C)c1O [Example 79, 2-(3,5-Bis-Trifluoromethyl-Phenyl)-3-(3,5-Di-Tert-Butyl-4-Hydroxy-Phenyl)-Acrylonitrile] | 6.00 | 80% | 3 µM | Tox 0.3 mM | – | – | – | –

Now from value to compound, other results behind:

pEC50 [1] | SMILES | Emax [2] | EC (Emax) [3] | HEP-G2 Tox (human, 3 h) | pEC50 (read-out: HEP-G2 EC50) | Emax [4] | EC (Emax) [5] | HEP-G2 Tox (concentration with sign of toxicity (significant drop in glucose utilisation))
6.22 | Cc1cc(C(=O)Nc2ccc([N+](=O)[O-])cc2Cl)c(O)c(C(C)(C)C)c1 [Example 45, 3-Tert-Butyl-N-(2-Chloro-4-Nitro-Phenyl)-2-Hydroxy-5-Methyl-Benzamide] | 96% | 3 µM | – | – | – | – | –
4.38 | N#Cc1cc(NC(=O)c2cccc(C(F)(F)F)c2)ccc1Sc1ccccc1 [Example 24, N-(3-Cyano-4-Phenylsulfanyl-Phenyl)-3-Trifluoromethyl-Benzamide] | 65% | 100 µM | – | – | – | – | –
5.22 | Cc1ccc(C(C)C)c(O)c1C(=O)Nc1ccc([N+](=O)[O-])cc1Cl [Example 39, N-(2-Chloro-4-Nitro-Phenyl)-2-Hydroxy-3-Isopropyl-6-Methyl-Benzamide] | 55% | 10 µM | – | – | – | – | –
3.57 | CC(=O)c1ccc(O)c([N+](=O)[O-])c1 [Example 3, 4-Hydroxy-3-Nitroacetophenone] | 75% | 1000 µM | – | – | – | – | –
5.47 | CC(C)c1cccc(C(=O)Nc2ccc([N+](=O)[O-])cc2Cl)c1O [Example 38, N-(2-Chloro-4-Nitro-Phenyl)-2-Hydroxy-3-Isopropyl-Benzamide] | 105% | 30 µM | – | – | – | – | –
6.51 | Cc1c(Br)cc(C(C)C)c(O)c1C(=O)Nc1ccc([N+](=O)[O-])cc1C(F)(F)F [Example 57, 3-Bromo-6-Hydroxy-5-Isopropyl-2-Methyl-N-(4-Nitro-2-Trifluoromethyl-Phenyl)-Benzamide] | 90% | 10 µM | – | – | – | – | –
5.52 | Cc1ccc(C(C)C)c(C(=O)Nc2ccc([N+](=O)[O-])cc2Cl)c1O [Example 46, N-(2-Chloro-4-Nitro-Phenyl)-2-Hydroxy-6-Isopropyl-3-Methyl-Benzamide] | 103% | 10 µM | – | – | – | – | –
5.40 | Cc1c(Br)cc(C(C)C)c(O)c1C(=O)Nc1ccc([N+](=O)[O-])cc1Cl [Example 41, 3-Bromo-N-(2-Chloro-4-Nitro-Phenyl)-6-Hydroxy-5-Isopropyl-2-Methyl-Benzamide] | 103% | 30 µM | – | – | – | – | –
5.54 | CC(C)(C)c1cc(/C=C(\C#N)c2ccncc2)cc(C(C)(C)C)c1O [Example 78, 3-(3,5-Di-Tert-Butyl-4-Hydroxy-Phenyl)-2-Pyridin-4-Yl-Acrylonitrile] | 80% | 10 µM | – | – | – | – | –
3.54 | COc1ccc(O)c([N+](=O)[O-])c1 [Example 2, 4-Methoxy-2-Nitrophenol] | 35% | 1000 µM | – | – | – | – | –
5.37 | O=C(Nc1cc(C(F)(F)F)cc(C(F)(F)F)c1)c1ccc(C(F)(F)F)c(F)c1 [Example 66, N-(3,5-Bis-Trifluoromethyl-Phenyl)-3-Fluoro-4-Trifluoromethyl-Benzamide] | 95% | 10 µM | – | – | – | – | –
